The target in one data set is T1, Human 5-lipoxygenase (Homo sapiens, UniProt P09917).
T1 construct: purchased Cayman 60402; host or cells: insect cells
T1 sequence (P09917 1-674): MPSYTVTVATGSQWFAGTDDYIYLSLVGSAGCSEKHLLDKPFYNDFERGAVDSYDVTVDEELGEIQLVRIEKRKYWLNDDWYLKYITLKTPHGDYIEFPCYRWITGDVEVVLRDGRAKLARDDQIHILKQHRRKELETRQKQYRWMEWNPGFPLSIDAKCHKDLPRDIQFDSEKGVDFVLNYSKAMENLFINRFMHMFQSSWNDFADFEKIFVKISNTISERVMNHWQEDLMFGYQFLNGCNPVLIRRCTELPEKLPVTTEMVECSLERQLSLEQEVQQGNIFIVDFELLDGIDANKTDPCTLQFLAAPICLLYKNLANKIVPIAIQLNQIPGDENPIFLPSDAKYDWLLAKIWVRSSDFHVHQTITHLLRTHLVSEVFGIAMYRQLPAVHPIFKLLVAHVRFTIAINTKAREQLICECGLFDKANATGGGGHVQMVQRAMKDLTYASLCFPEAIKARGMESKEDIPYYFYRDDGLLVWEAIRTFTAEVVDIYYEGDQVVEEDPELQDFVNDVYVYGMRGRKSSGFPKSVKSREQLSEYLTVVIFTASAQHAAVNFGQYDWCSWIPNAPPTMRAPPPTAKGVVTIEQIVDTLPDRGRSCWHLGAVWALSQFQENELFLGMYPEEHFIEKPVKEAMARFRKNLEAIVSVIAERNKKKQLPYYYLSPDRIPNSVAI
Briefly: Activity of compounds against 5-LO enzyme (LTB4 measurement and/or fluorescence method). It is filed as biochemical. The note with it: for inhibition at 10 µM: 5-LO, single concentration of 10 uM in duplicate; for IC50: 6 or 11 point dose response in duplicate. The essentials:
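Insect-cell human 5-LO preincubated 15 min at RT with compound (pH 7.4, 2 mM CaCl2, 0.1 mM ATP, 1% DMSO), then 3 uM arachidonic acid for 5 min at 37 °C; LTB4 quantified by EIA and/or LC/MS/MS. Alternatively, fluorescence of 5-HpETE via H2DCFDA, 100 uM ATP, 3 uM arachidonic acid, 5 min, RT; single 10 uM screen then 6- or 11-point IC50.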

Structures are written as SMILES. Bounds are passed on as bounds.

The compound `CCc1nc2cc(N3CCN(Cc4ccc(F)cc4)CC3)ccn2c1C(=O)NCc1ccc(N2CCOCC2)cc1` [compound 257, 2-Ethyl-7-(4-(4-fluorobenzyl)piperazin-1-yl)-N-(4-morpholinobenzyl)imidazo[1,2-a]pyridine-3-carboxamide] registered a melting point of 212.5 °C. The same compound gave an inhibition at 10 µM at Human 5-lipoxygenase of 40 to 69%.
On to `CCc1nc2ccc(Cl)cn2c1C(=O)NCc1ccc(N2CC(C)CC(C)C2)cc1` (stereo not drawn) [compound 197, 6-Chloro-N-(4-(3,5-dimethylpiperidin-1-yl)benzyl)-2-ethylimidazo[1,2-a]pyridine-3-carboxamide], for which the melting point was in the range of 157.2 to 158 °C. On Human 5-lipoxygenase, the inhibition at 10 µM was greater than 69% and the IC50 was greater than 20 µM.
`CCc1nc2cnccn2c1C(=O)NCc1ccc(OC(F)(F)F)cc1` [compound 141, 2-Ethyl-N-(4-(trifluoromethoxy)benzyl)imidazo[1,2-a]pyrazine-3-carboxamide]: the melting point was in the range of 176 to 177 °C. This compound also had an inhibition at 10 µM on Human 5-lipoxygenase of less than 40%.
As to `CCc1nc2c(F)cccn2c1C(=O)NCc1ccc(N2CCN(c3ccc(F)cc3)CC2)cc1` [compound 223, 2-Ethyl-8-fluoro-N-(4-(4-(4-fluorophenyl)piperazin-1-yl)benzyl)imidazo[1,2-a]pyridine-3-carboxamide], the melting point was determined as 204.1 °C. On Human 5-lipoxygenase, this compound came in with an inhibition at 10 µM greater than 69% and an IC50 of 1 to 20 µM.
For `CCc1nc2ccc(Cl)cn2c1C(=O)NCc1cccc(N(C)Cc2ccc(OC(F)(F)F)cc2)c1` [compound 352, 6-chloro-2-ethyl-N-(3-(methyl(4-(trifluoromethoxy)benz)amino)benzyl)imidazo[1,2-a]pyridine-3-carboxamide], the melting point was > 142.3 °C (dec.). At Human 5-lipoxygenase, this compound came in with an inhibition at 10 µM of less than 40%.
On the same counts, the results for `CCc1nc2cc(Cl)ccn2c1C(=O)NCc1ccc(N2CCN(c3ccc(OC(F)(F)F)cc3)CC2)cc1` [compound 159, 7-Chloro-2-ethyl-N-(4-(4-(4-(trifluoromethoxy)phenyl)piperazin-1-yl)benzyl)imidazo[1,2-a]pyridine-3-carboxamide] are 216.3 to 217 °C and 40 to 69%.
Compound `CCc1nc2cc(Cl)ccn2c1C(=O)NCc1ccc(N2CC(COc3ccc(F)cc3)OC2=O)cc1` (stereo not drawn) [compound 378, 7-chloro-2-ethyl-N-(4-(5-((4-fluorophenoxy)methyl)-2-oxooxazolidin-3-yl)benzyl)imidazo[1,2-a]pyridine-3-carboxamide] registered a melting point greater than 97.1 °C. The inhibition at 10 µM against Human 5-lipoxygenase was less than 40%.
The like results for `CCc1nc2cc(Cl)ccn2c1C(=O)NCc1nc2cc(-c3ccc(OC(F)(F)F)cc3)ccc2o1` [compound 370, 7-chloro-2-ethyl-N-((5-(4-(trifluoromethoxy)phenyl)benzo[d]oxazol-2-yl)methyl)imidazo[1,2-a]pyridine-3-carboxamide] were, in that order, greater than 220 °C and less than 40%.
On the same counts, the results for `CCc1nc2cc(Cl)ccn2c1C(=O)NCc1ccc(N2CCC(COc3ccc(OC(F)(F)F)cc3)CC2)cc1` [compound 214, 7-Chloro-2-ethyl-N-(4-(4-((4-(trifluoromethoxy)phenoxy)methyl)piperidin-1-yl)benzyl)imidazo[1,2-a]pyridine-3-carboxamide] are 189.5 °C and less than 40%.
Regarding `CCc1nc2cccnn2c1CNc1ccc(N2CCN(c3ccc(F)cc3)CC2)cc1` [compound 396, N-((2-Ethylimidazo[1,2-b]pyridazin-3-yl)methyl)-4-(4-(4-fluorophenyl)piperazin-1-yl)aniline], the melting point was determined as 192.7 °C. The same compound gave a half-inhibitory concentration (IC50) against Human 5-lipoxygenase of less than 1 µM.
For `CCc1nc2ccc(Cl)cn2c1C(=O)NCc1ccc(N2CCC(O)(c3ccc(F)cc3)CC2)cc1` [compound 306, 6-Chloro-2-ethyl-N-(4-(4-(4-fluorophenyl)-4-hydroxypiperidin-1-yl)benzyl)imidazo[1,2-a]pyridine-3-carboxamide], the melting point came out at 173.5 °C. Moreover, the inhibition at 10 µM against Human 5-lipoxygenase is 40 to 69%.

In general, inhibition refers to the change of the read-out against control, counted positive when it falls. Lower therefore signals a response near the control. Usually melting point stands for the temperature, or range, at which the solid turns liquid. What is called IC50 is the concentration that inhibits the measured activity by half. A higher IC50 goes with lower potency.
